Measured values published in publication PMC6216040, “Repurposing of an old drug: In vitro and in vivo efficacies of buparvaquone against Echinococcus multilocularis” (International Journal for Parasitology: Drugs and Drug …, 2018).

System: E. multilocularis metacestodes
Assay: PGI-assay: drug-induced damage on in vitro cultured metacestodes (Pathogen Box screening cascade and EC50)
Assay type: cell-based, Echinococcus multilocularis
Conditions: for PGI release, % of the Tx-100 control, 5d / PGI release, % of the Tx-100 control, 12d: 10 µM, singlets; for PGI release, % of the Tx-100 control, 5d / PGI release, % of Tx-100 control, average, 5d: 5 days of incubation; for PGI release, % of the Tx-100 control, 12d / PGI release, % of Tx-100 control, average, 12d: 12 days of incubation; for PGI release, % of Tx-100 control, average, 5d / PGI release, % of Tx-100 control, average, 12d: confirmatory screening at 10 µM in triplicates, values as % of Tx-100 control

Row | Compound | PGI release, % of the Tx-100 control, 5d [%] | PGI release, % of the Tx-100 control, 12d [%] | PGI release, % of Tx-100 control, average, 5d [%] | PGI release, % of Tx-100 control, average, 12d [%]
1 | NCCN(C(=O)c1ccc(Cl)cc1Cl)c1ccc(OCc2ccc(Cl)cc2)cc1 [MMV688371] | 45.68 | 52.47 | 3.16 | 3.77
2 | O=C(Nc1ccc(F)c(-c2nc3ncc(-c4ccccc4)cc3[nH]2)c1)N1CCCC1 [MMV688372] | 1.21 | 0.82 |  | 
3 | COc1cc(C2=NCCN2)ccc1-c1cn(-c2cccc(C3=NCCN3)c2)nn1 [MMV688407] | 1.48 | 1.29 |  | 
4 | CC1=Nc2ccc(Cl)cc2C(c2ccccc2)N1CCNC(=O)CN(C)C (stereo not shown) [MMV688410] | 0.08 | -1.09 |  | 
5 | Nc1ncnc2c1c(-c1cnc3ccccc3c1)nn2CC1CCNCC1 [MMV688411] | -0.63 | -1.19 |  | 
6 | CO[C@@H]1CN(c2ccc(C#CC3(O)CN4CCC3CC4)c(Cc3ccccc3)n2)C[C@H]1O (stereo partly shown) [MMV688415] | 3.28 | -0.74 |  | 
7 | CC(C)(C)OC(=O)N1CCN(c2nccc(-c3ccc(-c4ccc(Cl)cc4)s3)n2)CC1 [MMV688416] | -0.30 | -2.84 |  | 
8 | CC(C)n1nc(-c2cc3c(Cl)cccc3[nH]2)c2c(N)ncnc21 [MMV688417] | -4.81 | -2.43 |  | 
9 | Cn1ccnc1CNCCS(=O)(=O)c1cccc(Nc2ccc(-c3cccc(F)c3)cn2)c1 [MMV688466] | -0.60 | -2.11 |  | 
10 | CCCCN(CCCC)c1c(C#N)cc(S(=O)(=O)Nc2ccccc2)cc1C#N [MMV688467] | 17.50 | 35.72 | 4.92 | 11.29
11 | Nc1ncnc2n[nH]c(Cc3cccc4ccccc34)c12 [MMV688469] | -0.61 | -1.22 |  | 
12 | CS(=O)(=O)N1CCC(CCn2nc(Cc3cccc4ccccc34)c3c(N)ncnc32)CC1 [MMV688470] | 1.33 | 2.31 |  | 
13 | CC(C(=O)Nc1ccc2oc(-c3ccncc3)nc2c1)c1ccccc1 (stereo not shown) [MMV688471] | -1.25 | 5.56 |  | 
14 | CC(Oc1cccc(Cl)c1)C(=O)Nc1ccc2oc(-c3ccncc3)nc2c1 (stereo not shown) [MMV688472] | -0.36 | 0.44 |  | 
15 | COc1cc(C2=NCCN2)ccc1-n1cc(-c2cccc(C3=NCCN3)c2)nn1 [MMV688474] | -0.50 | -0.97 |  | 
16 | CC(=O)NCC1CN(c2ccc(-c3ccc(CO)cc3)c(F)c2)C(=O)O1 (stereo not shown) [MMV688508] | -0.03 | -1.49 |  | 
17 | O=C(OCc1ccccc1)N1CCC(c2cc(-c3ccncc3)c(-c3ccc(F)cc3)[nH]2)CC1 [MMV688509] | 0.97 | 2.28 |  | 
18 | N=C(N)c1ccc(-c2cc(-c3ccccc3)on2)cc1 [MMV688514] | -2.10 | 0.39 |  | 
19 | CC(C)(C)C(=O)N(CCCCCCN1C[C@H](O)[C@@H](O)[C@H](O)[C@H]1CO)C1CCCCCC1 [MMV688543] | -1.12 | -4.43 |  | 
20 | COc1ccc(C2=NCCN2)cc1-c1cn(-c2cccc(C3=NCCN3)c2)nn1 [MMV688547] | -0.44 | -1.41 |  | 
21 | CC(C)(C)n1nc(-c2ccccc2)c2c(N)ncnc21 [MMV688548] | -2.51 | 1.17 |  | 
